According to US12344599B2, “Prodigiosin analogs and methods of use” (Institute For Cancer Research, priority 2016, dated 2025):

Tests used:
SW480 = assay: CellTiterGlo cell viability assay, SW480; assay type: cell-based; details: Homo sapiens; SW480, colorectal cancer, p53 R273, P309S, 72 hours
Experimental: (§1) • 1) Cell lines: HT29, SW480, DLD-1, HCT116, and p53-null HCT116 cells, H1975, MDA-MD-231, U251, FaDu, CAL-27, PANC-1, Aspc-1, and MRC5 were obtained from the ATCC and cultured as recommended. Cells were regularly authenticated by bioluminescence, growth, and morphologic observation. The cells were routinely examined for Mycoplasma and all cell lines underwent STR authentication. • 2) Western blotting: After treatment, protein lysates were collected for Western blot analysis. 15 μg of protein was used for SDS-PAGE. After primary and secondary antibody incubations, the signal was detected by chemiluminescent detection kit, imaged by Syngene (Imgen Technologies). […] The cell viability was assessed by CellTiterGlo bioluminescent cell proliferation assay (Promega), following the manufacturer's protocol. Bioluminescence imaging was measured using the IVIS imager. Percentage of cell viability (mean±SEM) at each dose was calculated against the respective DMSO control. The IC50 values were determined from the sigmoidal dose-response curves using GraphPad Prims4. • 4) Caspase activity assay: Cells were seeded in 96-well plate (1×10^4 cells/well). […] The caspase 3/7 activity was assessed by Caspase-Glo® 3/7 Assay kit (Promega), following the manufacturer's protocol. Bioluminescence imaging was measured using the IVIS imager. […]

p53-target genes = assay: Western blotting of p53-target genes (Example 1); assay type: cell-based, human
Experimental: After treatment, protein lysates were collected for Western blot analysis. Twenty-five micrograms of protein were used for SDS-PAGE. After primary and secondary antibody incubations, the signal was detected with a chemiluminescent detection kit, followed by autoradiography or Syngen. […] In FIG. 10, p53-null HCT116 cells were treated with P01 and P306, alone or in combination with SiCon or SiTAp73, in various concentrations for 6 hours, and tested for p73 (C.S.), p73 (Bethyl), P63-α, p53, DR5, Puma, P21, and Ran proteins.

caspase 3/7 = assay: Caspase-Glo 3/7 caspase activity assay; assay type: cell-based, human; details: mutant p53 and p53-null cancer cells, 24 hours
Experimental: as §1

[1] = test system: PUMA and DR5 in HT29 and HCT116 p53−/− cell lines; assay: Western blot of PUMA and DR5, comparison with regorafenib; assay type: cell-based, human; details: 4 μM, 24-hour time point
Experimental: After treatment, protein lysates were collected for Western blot analysis. A total of […] of protein was used for SDS-PAGE. After primary and secondary antibody incubations, the signal was detected by a chemiluminescence detection kit, imaged by Syngene (Imgen Technologies). Antibodies for PUMA (for IHC), p53 (Santa Cruz Biotechnology), caspase 8, cleaved caspase 8, caspase 9, caspase 3, cleavage PARP, eIF2α, p-eIF2α (Ser51), CHOP, ATF4, DR5, FOXO3a, p-FOXO3a (Ser253), NF-κB p65, p-NF-κB p65 (Ser536), c-Jun, p-c-Jun (Ser63), JNK, p-JNK (Thr183/Tyr185), PUMA (for WB), c-Myc, phosphor-S62-cMyc (Cell Signaling Technology), Noxa, p21 (Calbiochem), p73 (Bethyl laboratories Inc), Ran (BD Biosciences), […] (Sigma).
Regorafenib is an FDA-approved drug for treatment of metastatic colorectal cancer, advanced gastrointestinal stromal tumors and hepatocellular carcinoma. Regorafenib inhibits ERK and leads to the induction of PUMA through the GSK3β/NF-κB axis and induces PUMA-mediated apoptosis in colon cancer cell lines (Chen et al., Clin Cancer Res, 2014, 20, 3472-3484). PG3-Oc was compared with regorafenib in the induction of PUMA and DR5. Regorafenib (40 μM and 24 hours treatment) was used as a control, as previously reported (Chen et al., Clin Cancer Res, 2014, 20, 3472-3484).

CCCCCCCCOC(=O)CCc1c(C)[nH]c(/C=C2\N=C(c3ccc[nH]3)C=C2OC)c1C [PG3-Oc, Octyl (Z)-3-(5-((4′-methoxy-1H,5′H-[2,2′-bipyrrol]-5′-ylidene)methyl)-2,4-dimethyl-1H-pyrrol-3-yl)propanoate]
IC50 (SW480): 95.3 nM | expression of p53-target genes (p53-target genes): induced mutant p53 and ΔNp73 degradation and the expression of p53-target genes | increase in caspase 3/7 activity as compared to untreated cells (caspase 3/7): 2 fold | level of PUMA and DR5 induced compared to 40 μM regorafenib [1]: much higher level of PUMA and DR5
